According to patent US20030092686A1, “Method of determining the initial dose of vitamin D compounds” (priority 2000, published 2003):

Tested on: adult ESRD patients
Test: Double-blind, randomized, 12-week trial of starting dose of paricalcitol injection (baseline PTH/80 vs 0.04 mcg/kg)
Type: in vivo, human
Details: for Incidences of Ca × P > 75: 2 consecutive occurrences of CaxP>75; for Median Number of Dose Adjustments: adjustments to achieve the first of 4 consecutive ≧30% decreases from baseline PTH; for Incidence(s) of Hypercalcemia: single episode, Ca>11.5 miligram/deciliter, 3x weekly, 12-week trial; for Median Days to First of 4 ≧ 30% PTH Decreases: statistically significant (P = 0.0306)
Experimental: A double-blind, randomized, 12-week trial was conducted in 125 adult ESRD patients to determine if a starting dose of paricalcitol injection using baseline PTH/80 was equivalent in the rate of hypercalcemia (single episode, Ca>11.5 miligram/deciliter) compared to the approved initial dose (0.04 mcg/kg, dry weight). Patients were randomized (1:1) to doses by either PTH/80 or 0.04 mcg/kg. Baseline demographics and laboratory values were similar between groups. Dosing occurred 3×weekly per patient hemodialysis schedule. Dose increases of 2 mcg could occur once per 2 weeks; decreases of 2 mcg could occur once per week. Patients completed the study by reducing PTH≧30% from baseline for 4 consecutive weekly measurements, or by having a single incidence of hypercalcemia, or by completing 12 weeks of treatment. The primary analysis was a comparison of the incidence of hypercalcemia between groups. Secondary analyses included the time in days to the first of 4 consecutive≧30% decreases from baseline PTH levels, the difference in the number of dose adjustments to achieve the first of 4 consecutive≧30% decreases from baseline PTH levels, and the difference in the incidence rates of 2 consecutive occurrences of CaxP>75.

[1] = initial dose 0.04 mcg/kg dry weight

C[C@H](/C=C/[C@H](C)C(C)(C)O)[C@H]1CC[C@H]2/C(=C/C=C3C[C@@H](O)C[C@H](O)C3)CCC[C@]12C [paricalcitol injection, Paricalcitol]
Mean PTH Decrease (SE) [1]: −193 (24.59) pg/mL
Incidences of Ca × P > 75 [1]: 2
Median Number of Dose Adjustments [1]: 3
Incidence(s) of Hypercalcemia [1]: 0
Median Days to First of 4 ≧ 30% PTH Decreases [1]: 45 days
Mean PTH Decrease (SE) (initial dose baseline PTH/80): −259 (24.01) pg/mL
Incidences of Ca × P > 75 (initial dose baseline PTH/80): 5
Median Number of Dose Adjustments (initial dose baseline PTH/80): 2
Incidence(s) of Hypercalcemia (initial dose baseline PTH/80): 0
Median Days to First of 4 ≧ 30% PTH Decreases (initial dose baseline PTH/80): 31 days
